US6878742B2, “Heterocyclic sulfonamide inhibitors of beta amyloid production” (Wyeth, priority 2000, dated 2005)
Where “and” joins values, the source holds several entries; their conditions need not be identical. Equal values may be shown once. Read-outs that look alike come from different tables or passages of the source.

Tested on: amyloid precursor protein (APP) proteolysis
Assay: Repressor Release Assay (RRA)
Assay type: cell-based
Conditions: for fold induction at 10 µg/mL / fold induction at 20 µg/mL: read-out: APPI Fold Increase
Procedure, shortened: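 CHO-K1 cells grown in DMEM with 10% fetal bovine serum were transiently co-transfected with pRSVO-luc and APP-lacI constructs via Lipofectamine Plus, plated into opaque 96-well plates, and exposed to diluted compound in duplicate for 36-48 hours at 37° C. LucLite luciferase signal was read on a TopCount and expressed as fold increase in relative light units over Hepes/DMSO diluent control.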

[1] = Conc 10 μg/mL, luciferase activity over diluent control
[2] = Conc 20 μg/mL, luciferase activity over diluent control
[3] = Conc 1 μg/mL, luciferase activity over diluent control
[4] = Conc 3 μg/mL, luciferase activity over diluent control

For `CC[C@H](C)[C@H](NS(=O)(=O)c1ccc(Cl)s1)C(O)c1ccc(SC)cc1` (stereo partly drawn) [Example 138, 5-chloro-N-((S,S)-1-{hydroxy[4-(methylthio)phenyl]methyl}-2-methylbutyl)thiophene-2-sulfonamide], the fold induction at 10 µg/mL [1] was 3.54.

For `O=S(=O)(NC1(CO)CCc2ccccc21)c1ccc(Cl)s1` (centres unmarked) [Example 179], the “APPI Fold Increase” value [2] was 8.3 fold.

Work on `C=CCCC(O)(CCC=C)[C@@H](NS(=O)(=O)c1ccc(Cl)s1)[C@@H](C)CC` [Example 171, N-{(S)-2-but-3-enyl-2-hydroxy-1-[(S)-1-methylpropyl]hex-5-enyl}-5-chlorothiophene-2-sulfonamide] yielded a fold induction at 10 µg/mL [1] of 5.32.

`CCC(CC)[C@@H](CO)NS(=O)(=O)c1cccs1` [Example 226, N-[(S)-2-Ethyl-1-(hydroxymethyl)butyl]thiophene-2-sulfonamide] showed a fold induction at 20 µg/mL [2] of 7.6.

For `CCC(CO)(CO)NS(=O)(=O)c1ccc(Br)s1` [Example 108, N-[1,1-bis(hydroxymethyl)propyl]-5-bromothiophene-2-sulfonamide], the fold induction at 20 µg/mL [2] was 2.

With `CCCCCC(O)C(NS(=O)(=O)c1ccc(Cl)s1)C(C)CC` (mixture of isomers) [Example 122] the “APPI Fold Increase” value [1] was 1.68 fold and 1.8 fold.

`CCCCCC[C@@H](c1ccco1)[C@@H](CO)NS(=O)(=O)c1ccc(Cl)s1` [Example 51, 5-chloro-N-[(1S,2R)-2-(2-furyl)-1-(hydroxymethyl)octyl]thiophene-2-sulfonamide] gave a fold induction at 20 µg/mL [2] of 4.

`CCCCCC(O)(CCCCC)[C@@H](NS(=O)(=O)c1ccc(Cl)s1)[C@@H](C)CC` [Example 163, 5-chloro-N-{(S)-2-hydroxy-1-[(S)-1-methylpropyl]-2-pentylheptyl}thiophene-2-sulfonamide] gave a fold induction at 10 µg/mL [1] of 3.3.

In the case of `O=[N+]([O-])c1ccc([C@@H](O)[C@@H](CO)NS(=O)(=O)c2ccc(Cl)s2)cc1` [Example 99, 5-chloro-N-[(R,R)-2-hydroxy-1-(hydroxymethyl)-2-(4-nitrophenyl)ethyl]thiophene-2-sulfonamide], the fold induction at 20 µg/mL [2] is reported as 1.5.

Work on `CCCCCC[C@@H](CCCCC)[C@@H](CO)NS(=O)(=O)c1ccc(Br)s1` [Example 65, 5-bromo-N-[(1S,2R)-1-(hydroxymethyl)-2-pentyloctyl]thiophene-2-sulfonamide] yielded a fold induction at 20 µg/mL [2] of 1.9.

`CC[C@H](C)[C@@H](CO)NS(=O)(=O)c1ccc(Br)s1` [Example 2] was tested, and the “APPI Fold Increase” value [3] was 1.79 fold and 1.54 fold, the “APPI Fold Increase” value [4] was 2.96 fold and 2.34 fold and the “APPI Fold Increase” value [1] was 4.26 fold and 3.2 fold and 3.06 fold. The “APPI Fold Increase” value [2] was 4.5 fold and 5.5 fold and 6.3 fold.

Work on `CCC[C@H](CC)[C@@H](CO)NS(=O)(=O)c1ccc(Br)s1` [Example 60, 5-bromo-N-[(1S,2S)-2-ethyl-1-(hydroxymethyl)pentyl]thiophene-2-sulfonamide] yielded a fold induction at 20 µg/mL [2] of 6.9.

`O=S(=O)(NC1(CO)Cc2ccccc2C1)c1ccc(Cl)s1` [Example 180] was tested, and the “APPI Fold Increase” value [2] was 2.3 fold.

In the case of `CC1=CC(C)C(C(CO)NS(=O)(=O)c2ccc(Cl)s2)C(C)C1` (centres unmarked) [Example 22, 5-chloro-N-[2-hydroxy-1-(2,4,6-trimethylcyclohex-3-en-1-yl)ethyl]thiophene-2-sulfonamide], the fold induction at 20 µg/mL is reported as 7.

In the case of `CC#CC(O)[C@@H](NS(=O)(=O)c1cccs1)[C@@H](C)CC` (stereo partly drawn) [Example 152, N-{(S)-2-hydroxy-1-[(S)-1-methylpropyl]pent-3-ynyl}thiophene-2-sulfonamide], the fold induction at 10 µg/mL [1] is reported as 1.51.

Compound `CC[C@@H](c1ccc(-c2ccccc2)cc1)[C@@H](CO)NS(=O)(=O)c1ccc(Cl)s1` [Example 54, N-[(1S,2S)-2-[1,1'-biphenyl]-4-yl-1-(hydroxymethyl)butyl]-5-chlorothiophene-2-sulfonamide] has a fold induction at 20 µg/mL [2] of 3.3.

Compound `O=S(=O)(N[C@H](CO)C1CCC(NCc2cccnc2)CC1)c1ccc(Cl)s1` (stereo partly drawn) [Example 216, 5-chloro-N-[(S)-2-hydroxy-1-(4-(3-pyridyl)methylaminocyclohexyl)ethyl]thiophene-2-sulfonamide] has a fold induction at 20 µg/mL [2] of 1.5.

`CCC[C@H](CC(C)C)[C@@H](CO)NS(=O)(=O)c1ccc(Br)s1` [Example 61, 5-bromo-N-[(1S,2R)-1-(hydroxymethyl)-4-methyl-2-propylpentyl]thiophene-2-sulfonamide] showed a fold induction at 20 µg/mL [2] of 5.7.

`CC(C)C[C@@H](c1ccc(-c2ccccc2)cc1)[C@@H](CO)NS(=O)(=O)c1ccc(Cl)s1` [Example 55, N-[(1S,2S)-2-[1,1'-biphenyl]-4-yl-1-(hydroxymethyl)-4-methylpentyl]-5-chlorothiophene-2-sulfonamide] showed a fold induction at 20 µg/mL [2] of 1.9.

In the case of `CCCCCC[C@@H](c1ccco1)[C@@H](CO)NS(=O)(=O)c1ccc(Br)s1` [Example 73, 5-bromo-N-[(1S,2R)-2-(2-furyl)-1-(hydroxymethyl)octyl]thiophene-2-sulfonamide], the fold induction at 20 µg/mL [2] is reported as 1.9.

`CC[C@H](C)[C@H](NS(=O)(=O)c1ccc(Cl)s1)C(O)c1ccc(N(C)C)cc1` (stereo partly drawn) [Example 139, 5-chloro-N-{(S,S)-1-[[4-(dimethylamino)phenyl](hydroxy)methyl]-2-methylbutyl}thiophene-2-sulfonamide] was tested, and the fold induction at 10 µg/mL [1] was 3.97.

Work on `CCCOC1CCC([C@@H](CO)NS(=O)(=O)c2ccc(Cl)s2)CC1` (stereo partly drawn) [Example 200, 5-chloro-N-[(S)-2-hydroxy-1-(4-propoxycyclohexyl)ethyl]thiophene-2-sulfonamide] yielded a fold induction at 20 µg/mL [2] of 2.

`CC[C@H](C)[C@H](NS(=O)(=O)c1ccc(Cl)s1)C(O)C=C(C)C` (stereo partly drawn) [Example 132, 5-chloro-N-{(S)-2-hydroxy-4-methyl-1-[(S)-1-methylpropyl]pent-3-enyl}thiophene-2-sulfonamide] gave a fold induction at 10 µg/mL [1] of 1.68.

In the case of `CCC(NCCO)[C@@H](CO)NS(=O)(=O)c1ccc(Cl)s1` (stereo partly drawn) [Example 82, 5-chloro-N-[(1S)-2-[(2-hydroxyethyl)amino]-1-(hydroxymethyl)butyl]-2-thiophenesulfonamide], the fold induction at 20 µg/mL [2] is reported as 2.2.

Compound `CCC(CC)[C@@H](C=O)NS(=O)(=O)c1ccc(Cl)s1` [Example 221A, 5-Chloro-N-[(S)-2-ethyl-1-formylbutyl]thiophene-2-sulfonamide] has a fold induction at 20 µg/mL [2] of 4.9.

`O=S(=O)(N[C@H](CO)c1ccccc1)c1ccc(Cl)s1` [Example 89, 5-Chloro-N-[(S)-2-hydroxy-1-phenylethyl]thiophene-2-sulfonamide] was tested, and the fold induction at 20 µg/mL [2] was 2.3.

`CNC1CCC([C@@H](CO)NS(=O)(=O)c2ccc(Cl)s2)CC1` (stereo partly drawn) [Example 212, 5-chloro-N-[(S)-2-hydroxy-1-(4-methylaminocyclohexyl)ethyl]thiophene-2-sulfonamide] was tested, and the fold induction at 20 µg/mL [2] was 1.7.

In the case of `O=S(=O)(NC1(CO)CCCC1)c1ccc(Br)s1` [Example 109], the “APPI Fold Increase” value [4] is reported as 1.8 fold and the “APPI Fold Increase” value [1] is reported as 2 fold.

In the case of `CCCCC[C@H](c1ccc(OC)cc1)[C@@H](CO)NS(=O)(=O)c1ccc(Cl)s1` [Example 43, 5-chloro-N-[(1S,2R)-1-(hydroxymethyl)-2-(4-methoxyphenyl)heptyl]thiophene-2-sulfonamide], the fold induction at 20 µg/mL [2] is reported as 1.7.

`C=C(C)CC(O)C1(NS(=O)(=O)c2ccc(Cl)s2)CCCCC1` (centres unmarked) [Example 198, 5-chloro-N-[1-(1-hydroxy-3-methylbut-3-enyl)cyclohexyl]thiophene-2-sulfonamide] gave a fold induction at 20 µg/mL [2] of 4.4.

For `CCCCC[C@H](C)[C@@H](CO)NS(=O)(=O)c1ccc(Cl)s1` [Example 39, 5-chloro-N-[(1S,2S)-1-(hydroxymethyl)-2-methylheptyl]thiophene-2-sulfonamide], the fold induction at 20 µg/mL [2] was 5.7.

`CC[C@H](C)[C@H](NS(=O)(=O)c1ccc(Cl)s1)C(O)(c1ccc(OC)cc1)c1ccc(OC)cc1` [Example 169, 5-chloro-N-((S,S)-1-{hydroxy[bis(4-methoxyphenyl)]methyl}-2-methylbutyl)thiophene-2-sulfonamide] showed a fold induction at 10 µg/mL [1] of 1.51.

Work on `CC[C@H](C)[C@@H](C=O)NS(=O)(=O)c1ccc(Cl)s1` [Example 118, 5-Chloro-N-[(S,S)-1-formyl-2-methylbutyl]thiophene-2 sulfonamide] yielded a fold induction at 20 µg/mL [2] of 4.8.

For `O=S(=O)(N[C@H](CO)Cc1ccc(OCc2ccccc2)cc1)c1ccc(Br)s1` [Example 116, N-{(S)-1-[4-(benzyloxy)benzyl]-2-hydroxyethyl}-5-bromothiophene-2-sulfonamide], the fold induction at 20 µg/mL [2] was 2.2.

For `CC[C@H](C)[C@@H](CO)NS(=O)(=O)c1ccc(Cl)s1` [Example 4], the “APPI Fold Increase” value [3] was 2.22 fold, the “APPI Fold Increase” value [4] was 2.98 fold and 3.52 fold and the “APPI Fold Increase” value [1] was 3.3 fold and 5.03 fold. For the same compound, the “APPI Fold Increase” value [2] was 4 fold and 5.4 fold and 3.3 fold and 5.1 fold.

For `CC[C@@H](C)[C@@H](CO)NS(=O)(=O)c1ccc(Cl)s1` [Example 16], the “APPI Fold Increase” value (Conc 0.3 μg/mL, luciferase activity over diluent control) was 1.7 fold, the “APPI Fold Increase” value [3] was 1.9 fold and 2.56 fold and the “APPI Fold Increase” value [4] was 3.1 fold and 4.47 fold. The “APPI Fold Increase” value [1] was 4.19 fold and 3.2 fold.

`CC[C@H](C)[C@@H](CO)NS(=O)(=O)c1ccc(Cl)o1` [Example 204, 5-Chloro-N-[(1S,2S)-1-(hydroxymethyl)-2-methylbutyl]-2-furansulfonamide] gave a fold induction at 20 µg/mL [2] of 2.8.

`CCC[C@H](CC(C)C)[C@@H](CO)NS(=O)(=O)c1ccc(Cl)s1` [Example 35, 5-chloro-N-[(1S,2R)-1-(hydroxymethyl)-4-methyl-2-propylpentyl]thiophene-2-sulfonamide] showed a fold induction at 20 µg/mL [2] of 3.7.

“5-bromo-N-{(S,S)-1-[R-1-hydroxyethyl]-2-methylbutyl}thiophene-2-sulfonamide [Example 191]” was tested, and the “APPI Fold Increase” value [2] was 5.4 fold and 4.8 fold.

In the case of `CCCCC[C@H](CC)[C@@H](CO)NS(=O)(=O)c1ccc(Br)s1` [Example 62, 5-bromo-N-[(1S,2S)-2-ethyl-1-(hydroxymethyl)heptyl]thiophene-2-sulfonamide], the fold induction at 20 µg/mL [2] is reported as 4.5.
